# Columns and labels:
# [1] = molecular target: T1, FGFR4 (Homo sapiens, UniProt P22455); assay: Kinase binding assay (Kd), FGFR4; details: 11-point 3-fold dilution, qPCR readout
# T1 construct: made in house; host or cells: E. coli host derived from BL21, infected with T7 phage
# Summary of the method: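 Kinases expressed as T7 phage fusions are mixed with ligand-coated magnetic beads and compound (0.9% DMSO), then shaken 1 h at room temperature. After washing, bound kinase is eluted with free ligand for 30 min and measured by qPCR; Kd is obtained by Hill-equation fitting.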
# [2] = molecular target: T2, FGFR3-BAIAP2L1 Ba/F3 cells (Homo sapiens, UniProt P22607); assay: Ba/F3 cell viability assay, FGFR3; format: cell-based; details: FGFR3-BAIAP2L1 fusion Ba/F3, 48 hours, Cell Titer-Glo 2.0; read-out: Ba/F3 Cells FGFR3 (IC50 nM)
# T2 construct: Ba/F3 FGFR3; FGFR3--BAIAP2L1 fusion; Advanced Cellular Dynamics, (Seattle, WA); fused on or other part: Q9UHR4 (BAR/IMD domain-containing adapter protein 2-like 1)
# T2 sequence (P22607 whole entry, change not shown, the tested form may be a part): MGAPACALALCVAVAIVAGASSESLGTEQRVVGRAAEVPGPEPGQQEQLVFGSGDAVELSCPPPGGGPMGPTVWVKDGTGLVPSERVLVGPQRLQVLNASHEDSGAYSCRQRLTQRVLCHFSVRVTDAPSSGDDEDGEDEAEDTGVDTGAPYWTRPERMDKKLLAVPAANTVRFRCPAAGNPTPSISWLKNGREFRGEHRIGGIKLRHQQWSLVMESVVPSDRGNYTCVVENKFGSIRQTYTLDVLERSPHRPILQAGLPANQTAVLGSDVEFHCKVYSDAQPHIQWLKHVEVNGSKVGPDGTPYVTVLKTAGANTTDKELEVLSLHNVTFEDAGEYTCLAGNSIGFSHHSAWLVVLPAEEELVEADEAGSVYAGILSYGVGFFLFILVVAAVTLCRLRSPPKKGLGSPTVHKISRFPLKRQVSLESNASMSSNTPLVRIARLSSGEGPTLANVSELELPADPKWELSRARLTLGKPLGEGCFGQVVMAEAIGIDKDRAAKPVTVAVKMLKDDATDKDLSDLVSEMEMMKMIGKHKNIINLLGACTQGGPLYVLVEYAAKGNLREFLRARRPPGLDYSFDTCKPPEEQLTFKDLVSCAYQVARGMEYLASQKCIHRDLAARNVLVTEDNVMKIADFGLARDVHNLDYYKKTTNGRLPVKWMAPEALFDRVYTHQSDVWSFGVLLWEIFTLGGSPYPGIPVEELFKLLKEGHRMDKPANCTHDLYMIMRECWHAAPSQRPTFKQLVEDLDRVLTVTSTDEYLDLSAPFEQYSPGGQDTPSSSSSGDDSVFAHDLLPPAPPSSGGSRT
# From the text: Experimental Purpose: Recombinant kinase fusions are transduced into parental Ba/F3, which becomes dependent upon this constitutive kinase activity for IL3-independent survival. Inhibition of kinase activity leads to cell death, which is monitored using CellTiter-Glo® 2.0 (Promega) which measures intracellular ATP concentration that in turn serves as a marker for viability. FGFR1-BCR Ba/F3 and FGFR3-BAIAP2L1 Ba/F3 were obtained from Advanced Cellular Dynamics (Seattle, Wash.)
# Cell Viability Assay Procedure: Cell Titer-Glo® 2.0 Luminescent cell viability assay reagent was purchased from Promega (Madison, Wis.). FGFR1-BCR Ba/F3 and FGFR3-BAIAP2L1 Ba/F3 cells were cultured in RPMI1640 media supplemented with 10% fetal bovine serum. Cultures were maintained at 37° C. in a humidified atmosphere of 5% CO2 and 95% air.
# Cells were plated in 96-well clear bottom/white plates (Corning #3903) at 10,000 cells/well in 100 μl of media, incubated overnight. The next day, test compound DMSO stock solutions were made at 10 mM and 2 μM final concentration. Compounds were then added to cells in a 9-dose, 10-fold dilution series starting at 30 μM with an HP 300e Digital Dispenser (each dose was applied in triplicate). DMSO was backfilled to each well up to 301 nL total volume of test compound+DMSO, and a total of 301 nL DMSO was added to a control/no test compound well in triplicate. The cells in cell culture plates were incubated with the compounds at 37° C. and 5% CO2 for 48 hours. Then 50 μl of Cell Titer Glo 2.0 reagent was added to each well of the cell culture plates. The contents were covered from light and mixed on an orbital shaker at room temperature for 10 min. Luminescence was recorded by a Synergy H1 Microplate Reader (Biotek, Winooski, Vt.). Cells were assessed as a percentage of DMSO only treated control cells. Curves were plotted and IC50 values were calculated using the GraphPad Prism 8 program based on a sigmoidal dose-response equation (4 parameter).
# [3] = tested on: RT112/84 cells (Bladder Cancer, FGFR3-TACC3 fusion); assay: Cancer cell line cell viability assay, RT112/84; format: cell-based; details: Homo sapiens, 72 hours, Cell Titer-Glo 2.0, read-out: Cancer Cell Viability Assays RT112/84 (IC50 nM)
# From the text: [table] To detect the change of intracellular ATP by Cell Titer-Glo® and to evaluate the inhibitory effect of the compounds on cancer cell lines by determining the in vitro IC50 value of the compounds. Cell Titer-Glo® 2.0 Luminescent cell viability assay reagent was purchased from Promega (Madison, Wis.). RT112/84, SNU-16, and KG-1 cell lines were purchased from American Type Culture Collection (Manassas, Va.). UM-UC-14 cell line was purchased from Sigma (St. Louis, Mo.). RT112/84, UM-UC-14, SNU-16, and KG-1 cells were cultured in RPMI1640 media supplemented with 10% fetal bovine serum. Cultures were maintained at 37° C. in a humidified atmosphere of 5% CO2 and 95% air. Cell Viability Assay Procedure: Cells were plated in 96-well clear bottom/white plates (Corning #3903) at 10,000 cells/well in 100 μl of media, incubated overnight. The next day, test compound DMSO stock solutions were made at 10 mM and 2 μM final concentration. Compounds were then added to cells in a 9-dose, […] dilution series starting at 30 μM with an HP 300e Digital Dispenser (each dose was applied in triplicate). DMSO was backfilled to each well up to 301 nL total volume of test compound+DMSO, and a total of 301 nL DMSO was added to a control/no test compound well in triplicate. The cells in cell culture plates were incubated with the compounds at 37° C. and 5% CO2 for 72 hours. Then 50 μl of Cell Titer Glo 2.0 reagent was added to each well of the cell culture plates. The contents were covered from light and mixed on an orbital shaker at room temperature for 10 min. Luminescence was recorded by a Synergy H1 Microplate Reader (Biotek, Winooski, Vt.). Cells were assessed as a percentage of DMSO only treated control cells. Curves were plotted and IC50 values were calculated using the GraphPad Prism 8 program based on a sigmoidal dose-response equation (4 parameter).
# T1 sequence (P22455 22-802): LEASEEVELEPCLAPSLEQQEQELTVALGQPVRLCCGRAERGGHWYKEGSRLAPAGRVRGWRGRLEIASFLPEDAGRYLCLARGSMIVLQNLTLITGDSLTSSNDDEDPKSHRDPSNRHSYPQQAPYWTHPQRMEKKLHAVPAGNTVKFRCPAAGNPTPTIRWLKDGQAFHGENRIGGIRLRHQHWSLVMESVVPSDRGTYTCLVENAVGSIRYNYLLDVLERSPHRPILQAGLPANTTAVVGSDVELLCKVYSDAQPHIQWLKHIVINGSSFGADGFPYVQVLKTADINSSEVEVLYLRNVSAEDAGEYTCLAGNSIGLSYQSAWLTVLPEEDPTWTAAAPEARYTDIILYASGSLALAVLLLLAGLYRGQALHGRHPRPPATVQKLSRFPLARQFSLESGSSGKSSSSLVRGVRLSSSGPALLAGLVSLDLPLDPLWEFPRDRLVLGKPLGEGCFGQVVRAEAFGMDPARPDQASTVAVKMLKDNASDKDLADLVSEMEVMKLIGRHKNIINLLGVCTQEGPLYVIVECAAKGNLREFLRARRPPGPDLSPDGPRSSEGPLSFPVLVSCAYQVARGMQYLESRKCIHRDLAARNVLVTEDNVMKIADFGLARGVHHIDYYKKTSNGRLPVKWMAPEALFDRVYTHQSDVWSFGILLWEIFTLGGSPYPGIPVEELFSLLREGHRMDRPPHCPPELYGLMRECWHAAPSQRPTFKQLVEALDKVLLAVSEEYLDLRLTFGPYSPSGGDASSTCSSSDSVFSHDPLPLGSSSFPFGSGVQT
Kd [1],IC50 [3],SMILES,GI50 [2]
42 nM,16 nM,"C=CC(=O)Nc1ccc2c(c1)c(C)cn2-c1nc(Nc2ccc(N=S(C)(C)=O)c(F)c2)ncc1Cl [Example 60, N-[1-[5-Chloro-2-[4-[[dimethyl(oxo)-λ^6-sulfanylidene]amino]-3-fluoro-anilino]pyrimidin-4-yl]-3-methyl-indol-5-yl]prop-2-enamide]",10 nM
100 nM,23 nM,"C=CC(=O)Nc1ccc2c(c1)c(C)cn2-c1nc(Nc2ccc(N=S(C)(C)=O)cc2)ncc1Cl [Example 61, N-[1-[5-Chloro-2-[4-[[dimethyl(oxo)-λ^6-sulfanylidene]amino]anilino]pyrimidin-4-yl]-3-methyl-indol-5-yl]prop-2-enamide]",15 nM
170 nM,64 nM,"C=CC(=O)Nc1ccc2c(c1)c(C)cn2-c1nc(Nc2ccc(N=S(C)(C)=O)c(F)c2)ncc1C#N [Example 62, N-[1-[5-Cyano-2-[4-[[dimethyl(oxo)-λ^6-sulfanylidene]amino]-3-fluoro-anilino]pyrimidin-4-yl]-3-methyl-indol-5-yl]prop-2-enamide]",46 nM
39 nM,8 nM,"C=CC(=O)Nc1ccc2c(c1)c(C)cn2-c1nc(Nc2ccc(N=S(C)(C)=O)c(F)c2)ncc1C [Example 63, N-[1-[2-[4-[[dimethyl(oxo)-λ^6-sulfanylidene]amino]-3-fluoro-anilino]-5-methyl-pyrimidin-4-yl]-3-methyl-indol-5-yl]prop-2-enamide]",5 nM
59 nM,12 nM,"C=CC(=O)Nc1ccc2c(c1)c(C)cn2-c1nc(Nc2ccc(N=S(C)(C)=O)c(OC)c2)ncc1Cl [Example 64, N-[1-[5-Chloro-2-[4-[[dimethyl(oxo)-λ^6-sulfanylidene]amino]-3-methoxy-anilino]pyrimidin-4-yl]-3-methyl-indol-5-yl]prop-2-enamide]",12 nM
680 nM,113 nM,"C=CC(=O)Nc1ccc2c(ccn2-c2nc(Nc3ccc(N=S(C)(C)=O)cc3)ncc2Cl)c1 [Example 66, N-[1-[5-chloro-2-[4-[[dimethyl(oxo)-λ^6-sulfanylidene]amino]anilino]-pyrimidin-4-yl]indol-5-yl]prop-2-enamide]",28 nM
370 nM,159 nM,"C=CC(=O)Nc1ccc2c(ccn2-c2nc(Nc3ccc(S(C)(=N)=O)cc3)ncc2Cl)c1 (stereo not drawn) [Example 70, N-[1-[5-Chloro-2-[4-(methylsulfonimidoyl)anilino]-pyrimidin-4-yl]indol-5-yl]prop-2-enamide]",34 nM
230 nM,47 nM,"C=CC(=O)Nc1ccc2c(-c3nc(Nc4ccc(N=S(C)(C)=O)cc4)ncc3Cl)cn(C)c2c1 [Example 92, N-[3-[5-chloro-2-[4-[[dimethyl(oxo)-λ^6-sulfanylidene]amino]anilino]pyrimidin-4-yl]-1-methyl-indol-6-yl]prop-2-enamide]",15 nM
